Laboratory results: patent US10988466B2, “Heterocyclic derivatives useful as SHP2 inhibitors” (Jacobio Pharmaceuticals Co., Ltd., priority 2017, dated 2021)

Each compound was assayed against T1, SHP2 (Homo sapiens, UniProt Q06124) (assay: biochemical). Details: read-out: SHP2 inhibition (%)@0.1 μM.
T1 sequence (Q06124 1-593): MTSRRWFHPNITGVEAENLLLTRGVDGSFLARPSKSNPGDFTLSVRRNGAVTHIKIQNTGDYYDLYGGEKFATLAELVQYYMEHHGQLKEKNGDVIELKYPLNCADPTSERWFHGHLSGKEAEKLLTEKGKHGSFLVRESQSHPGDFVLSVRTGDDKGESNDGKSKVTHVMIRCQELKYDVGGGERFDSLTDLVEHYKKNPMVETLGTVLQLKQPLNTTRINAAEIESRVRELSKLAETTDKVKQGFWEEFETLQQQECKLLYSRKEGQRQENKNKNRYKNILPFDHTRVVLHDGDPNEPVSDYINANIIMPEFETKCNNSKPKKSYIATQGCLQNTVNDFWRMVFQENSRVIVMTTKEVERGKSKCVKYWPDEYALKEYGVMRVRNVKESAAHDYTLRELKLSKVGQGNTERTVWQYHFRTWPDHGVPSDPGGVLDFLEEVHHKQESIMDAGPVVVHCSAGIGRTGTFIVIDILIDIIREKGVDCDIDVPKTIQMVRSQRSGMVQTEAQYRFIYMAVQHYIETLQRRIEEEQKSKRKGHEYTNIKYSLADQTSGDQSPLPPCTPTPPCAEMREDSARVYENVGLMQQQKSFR
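Further: compounds preincubated 30 min at room temperature in the assay mixture, activity referenced to a 0.5% (v/v) DMSO control taken as 100%, run in triplicate.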

Row | Structure (SMILES) | inhibition at 0.1 µM
1 | CC(=O)N1CC(F)(F)c2c(Sc3ncc(N4CCC5(CC4)Cc4ncccc4[C@H]5N)nc3N)cccc21 [Example 103, (S)-1-(4-((3-amino-5-(5-amino-5,7-dihydrospiro [cyclopenta[b]pyridine-6,4′-piperidin]-1′-yl)pyrazin-2-yl)thio)-3,3-difluoroindolin-1-yl) ethan-1-one] | 76%
2 | N[C@@H]1c2cccnc2CC12CCN(c1cnc(Sc3cnccc3Cl)cn1)CC2 [Example 106, (S)-1′-(5-((4-chloropyridin-3-yl)thio)pyrazin-2-yl)-5,7-dihydrospiro [cyclopenta[b]pyridine-6,4′-piperidin]-5-amine] | 82%
3 | Nc1nc(N2CCC3(CC2)Cc2ncccc2[C@H]3N)cnc1Sc1cnccc1Cl [Example 107, (S)-1′-(6-amino-5-((4-chloropyridin-3-yl)thio)pyrazin-2-yl)-5,7-dihydrospiro[cyclo-penta[b]pyridine-6,4′-piperidin]-5-amine] | 77%
4 | Nc1cnccc1Sc1cnc(N2CCC3(CC2)Cc2ncccc2[C@H]3N)cn1 [Example 108, (S)-1′-(5-((3-amino-pyridin-4-yl)thio)pyrazin-2-yl)-5,7-dihydrospiro [cyclopenta[b]pyridine-6,4′-piperidin]-5-amine] | 71%
5 | Nc1cnccc1Sc1ncc(N2CCC3(CC2)Cc2ncccc2[C@H]3N)nc1N [Example 109, (S)-1′-(6-amino-5-((3-aminopyridin-4-yl)thio)pyrazin-2-yl)-5,7-dihydrospiro[cyclo-penta[b]pyridine-6,4′-piperidin]-5-amine] | 71%
6 | N[C@@H]1c2cccnc2CC12CCN(c1cnc(Sc3c(Cl)cncc3Cl)cn1)CC2 [Example 110, (S)-1′-(5-((3,5-dichloropyridin-4-yl)thio)pyrazin-2-yl)-5,7-dihydrospiro [cyclopenta[b]pyridine-6,4′-piperidin]-5-amine] | 61%
7 | Nc1nc(N2CCC3(CC2)Cc2ncccc2[C@H]3N)cnc1Sc1c(Cl)cncc1Cl [Example 111, (S)-1′-(6-amino-5-((3,5-dichloro-pyridin-4-yl)thio)pyrazin-2-yl)-5,7-dihydrospiro [cyclopenta[b]pyridine-6,4′-piperidin]-5-amine] | 82%
8 | Nc1cc(Sc2ncc(N3CCC4(CC3)Cc3ncccc3[C@H]4N)nc2N)c(Cl)cn1 [Example 113, (S)-1′-(6-amino-5-((2-amino-5-chloropyridin-4-yl)thio)pyrazin-2-yl)-5,7-dihydrospiro [cyclopenta[b]pyridine-6,4′-piperidin]-5-amine] | 80%
9 | Nc1nc(N2CCC3(CC2)Cc2ncccc2[C@H]3N)cnc1Sc1cccnc1C(F)(F)F [Example 114, (S)-1′-(6-amino-5-((2-(trifluoro-methyl)pyridin-3-yl)thio)pyrazin-2-yl)-5,7-dihydrospiro [cyclopenta [b]pyridine-6,4′-piperidin]-5-amine] | 96%
10 | N[C@@H]1c2cccnc2CC12CCN(c1cnc(Sc3ccnc(F)c3Cl)cn1)CC2 [Example 115, (S)-1′-(5-((3-chloro-2-fluoropyridin-4-yl)thio)pyrazin-2-yl)-5,7-dihydrospiro [cyclopenta[b]pyridine-6,4′-piperidin]-5-amine] | 86%
11 | Nc1nc(N2CCC3(CC2)Cc2ncccc2[C@H]3N)cnc1Sc1ccnc(F)c1Cl [Example 116, (S)-1′-(6-amino-5-((3-chloro-2-fluoropyridin-4-yl)thio)pyrazin-2-yl)-5,7-dihydrospiro [cyclopenta[b]pyridine-6,4′-piperidin]-5-amine] | 79%
12 | N#Cc1ncccc1Sc1cnc(N2CCC3(CC2)Cc2ncccc2[C@H]3N)cn1 [Example 117, (S)-3-((5-(5-amino-5,7-dihydrospiro [cyclopenta[b]pyridine-6,4′-piperidin]-1′-yl)pyrazin-2-yl)thio) picolinonitrile] | 81%
13 | N#Cc1ncccc1Sc1ncc(N2CCC3(CC2)Cc2ncccc2[C@H]3N)nc1N [Example 118, (S)-3-((3-amino-5-(5-amino-5,7-dihydrospiro [cyclopenta[b]pyridine-6,4′-piperidin]-1′-yl)pyrazin-2-yl)thio)picolinonitrile] | 81%
14 | N[C@@H]1c2cccnc2CC12CCN(c1cnc(Sc3cc(Cl)ncc3C(F)(F)F)cn1)CC2 [Example 119, (S)-1′-(5-((2-chloro-5-(trifluoro-methyl)pyridin-4-yl)thio)pyrazin-2-yl)-5,7-dihydro-spiro[cyclopenta [b]pyridine-6,4′-piperidin]-5-amine] | 61%
15 | Nc1nc(N2CCC3(CC2)Cc2ncccc2[C@H]3N)cnc1Sc1cc(Cl)ncc1C(F)(F)F [Example 120, (S)-1′-(6-amino-5-((2-chloro-5-(trifluoromethyl)pyridin-4-yl)thio)pyrazin-2-yl)-5,7-dihydrospiro [cyclopenta[b]pyridine-6,4′-piperidin]-5-amine] | 87%
16 | Nc1nc(N2CCC3(CC2)Cc2ccccc2C3N)cnc1Sc1ccnc(N)c1Cl (centres unmarked) [Example 124, 1′-(6-amino-5-((2-amino-3-chloropyridin-4-yl)thio)pyrazin-2-yl)-1,3-dihydrospiro [indene-2,4′-piperidin]-1-amine] | 84%
17 | Nc1nccc(Sc2cnc(N3CCC4(CC3)Cc3ccccc3C4N)cn2)c1Cl (centres unmarked) [Example 125, 1′-(5-((2-amino-3-chloropyridin-4-yl)thio)pyrazin-2-yl)-1,3-dihydrospiro [indene-2,4′-piperidin]-1-amine] | 86%
18 | Nc1cccc(Sc2ncc(N3CCC4(CC3)Cc3ncccc3C4N)nc2N)c1Cl (centres unmarked) [Example 126, 1′-(6-amino-5-((3-amino-2-chlorophenyl)thio)pyrazin-2-yl)-5,7-dihydrospiro[cyclo-penta[b]pyridine-6,4′-piperidin]-5-amine] | 81%
19 | Nc1nc(N2CCC3(CC2)Cc2cnccc2C3N)cnc1Sc1ccnc(N)c1Cl (centres unmarked) [Example 127, 1′-(6-amino-5-((2-amino-3-chloropyridin-4-yl)thio)pyrazin-2-yl)-5,7-dihydrospiro [cyclopenta[c]pyridine-6,4′-piperidin]-5-amine] | 83%
20 | Nc1cccc(Sc2cnc(N3CCC4(CC3)Cc3ncccc3C4N)cn2)c1Cl (centres unmarked) [Example 128, 1′-(5-((3-amino-2-chlorophenyl)thio)pyrazin-2-yl)-5,7-dihydrospiro [cyclopenta[b]pyridine-6,4′-piperidin]-5-amine] | 84%
21 | Nc1nc(N2CCC3(CC2)Cc2cc(Br)ccc2C3N)cnc1Sc1ccnc(N)c1Cl (centres unmarked) [Example 129, 1′-(6-amino-5-((2-amino-3-chloropyridin-4-yl)thio)pyrazin-2-yl)-5-bromo-1,3-dihydro-spiro[indene-2,4′-piperidin]-1-amine] | 74%
22 | Nc1nc(N2CCC3(CC2)Cc2sc(Cl)nc2C3N)cnc1Sc1ccnc(N)c1Cl (centres unmarked) [Example 130, 1′-(6-amino-5-((2-amino-3-chloropyridin-4-yl)thio)pyrazin-2-yl)-2-chloro-4,6-dihydro-spiro[cyclopenta [d]thiazole-5,4′-piperidin]-4-amine] | 94%
23 | Nc1nccc(Sc2cnc(N3CCC4(CC3)Cc3sc(Cl)nc3C4N)cn2)c1Cl (centres unmarked) [Example 131, 1′-(5-((2-amino-3-chloropyridin-4-yl)thio)pyrazin-2-yl)-2-chloro-4,6-dihydrospiro [cyclopenta[d]thiazole-5,4′-piperidin]-4-amine] | 83%
